Measured values: patent US9890185B2, “Urea derivatives useful as kinase inhibitors” (Respivert Limited, priority 2013, dated 2018)

What was measured:
Syk = Syk (Homo sapiens (Human), UniProt P43405); test: Syk enzyme inhibition (FRET, Z-LYTE); type: biochemical
Procedure: (§1) The enzyme inhibitory activities of compounds disclosed herein are determined by FRET using synthetic peptides labelled with both donor and acceptor fluorophores (Z-LYTE, Invitrogen Ltd., Paisley, UK).
(§2) The inhibitory activities of compounds of the invention against c-Src and Syk enzymes (Invitrogen), are evaluated in a similar fashion to that described hereinabove. The relevant enzyme (3000 ng/mL or 2000 ng/mL respectively, 2.5 μL) is incubated with the test compound (either 4 μg/mL, 0.4 μg/mL, 0.04 μg/mL, or 0.004 μg/mL, 2.5 μL each) for 2 hr at RT. The FRET peptides (8 μM, 2.5 μL), and appropriate ATP solutions (2.5 μL, 800 μM for c-Src, and 60 μM ATP for Syk) are then added to the enzymes/compound mixtures and incubated for 1 hr. Development reagent (protease, 5 μL) is added for 1 hr prior to detection in a fluorescence microplate reader (Varioskan® Flash, ThermoFisher Scientific).
(§3) In all cases, the site-specific protease cleaves non-phosphorylated peptide only and eliminates the FRET signal. Phosphorylation levels of each reaction are calculated using the ratio of coumarin emission (donor) over fluorescein emission (acceptor), for which high ratios indicate high phosphorylation and low ratios indicate low phosphorylation levels. The percentage inhibition of each reaction is calculated relative to non-inhibited control and the 50% inhibitory concentration (IC50 value) is then calculated from the concentration-response curve.

d-U937 cells = test: Accumulation of β catenin in d-U937 cells (assay m); type: cell-based, human; conditions: percentage relative to Reference Compound at 1 μg/mL
Procedure: U937 cells, a human monocytic cell line, are differentiated into macrophage-type cells by incubation with PMA; (100 ng/mL) for between 48 to 72 hr. The cells are then incubated with either final concentrations of test compound or vehicle for 18 hr. The induction of β-catenin by the test compounds is stopped by replacing the media with 4% formaldehyde solution. Endogenous peroxide activity is neutralised by incubating with quenching buffer (100 μL, 0.1% sodium azide, 1% H2O2 in PBS with 0.05% Tween-20) for 20 min. The cells are washed with washing buffer (200 μL; PBS containing 0.05% Tween-20) and incubated with blocking solution (200 μL; 5% milk in PBS) for 1 hr, re-washed with washing buffer (200 μL) and then incubated overnight with anti-β-catenin antibody solution (50 μL) in 1% BSA/PBS (BD, Oxford, UK).
After washing with washing buffer (3×200 μL; PBS containing 0.05% Tween-20), cells are incubated with an HRP-conjugated secondary antibody solution (100 μL) in 1% BSA/PBS (Dako, Cambridge, UK) and the resultant signal is determined colourimetrically (OD: 450 nm with a reference wavelength of 655 nm) using TMB substrate (50 μL; R&D Systems, Abingdon, UK). This reaction is stopped by addition of 1N H2SO4 solution (50 μL). Cells are then washed with washing buffer and 2% crystal violet solution (50 μL) is applied for 30 min. After washing with washing buffer (3×200 μL), 1% SDS (100 μL) is added to each well and the plates are shaken lightly for 1 hr prior to measuring the absorbance at 595 nm (Varioskan® Flash, Thermo-Fisher Scientific).
The measured OD450-655 readings are corrected for cell number by dividing the OD450-655 by the OD595 readings.

[1] = biological target: p38 MAPKα isoform (MAPK14) (Homo sapiens (Human), UniProt Q16539); test: p38 MAPKα enzyme inhibition (FRET, Z-LYTE, Method 2); type: biochemical
Chain of p38 MAPKα isoform (MAPK14) (Q16539 whole entry, canonical isoform): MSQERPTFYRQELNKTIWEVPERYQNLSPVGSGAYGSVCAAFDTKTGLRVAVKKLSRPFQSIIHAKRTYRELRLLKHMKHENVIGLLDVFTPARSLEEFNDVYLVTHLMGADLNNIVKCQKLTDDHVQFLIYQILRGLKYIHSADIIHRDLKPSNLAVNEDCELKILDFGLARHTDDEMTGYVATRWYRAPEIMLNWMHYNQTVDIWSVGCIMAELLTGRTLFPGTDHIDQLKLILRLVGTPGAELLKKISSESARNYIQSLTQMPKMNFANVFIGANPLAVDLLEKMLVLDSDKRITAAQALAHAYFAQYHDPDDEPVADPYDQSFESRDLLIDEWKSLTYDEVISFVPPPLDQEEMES
Procedure: as §1
The following two assay variants can be used for determination of p38 MAPKα inhibition.
The inhibitory activities of test compounds against the p38 MAPKα isoform (MAPK14: Invitrogen), are evaluated indirectly by determining the level of activation/phosphorylation of the down-stream molecule, MAPKAP-K2. The p38 MAPKα protein (80 ng/mL, 2.5 μL) is mixed with the test compound (2.5 μL of either 4 μg/mL, 0.4 μg/mL, 0.04 μg/mL or 0.004 μg/mL) for 2 hr at RT. […] The mixture is incubated for 1 hr at RT. Development reagent (protease, 5 μL) is added for 1 hr prior to detection in a fluorescence microplate reader (Varioskan® Flash, ThermoFisher Scientific).
This method follows the same steps as Method 1 above, but utilises a higher concentration of the p38 MAPKα protein (2.5 μL of 200 ng/mL protein instead of 2.5 μL of 80 ng/mL protein) for mixing with the test compound.
as §3

c-Src = c-Src (Homo sapiens (Human), UniProt P12931); test: c-Src enzyme inhibition (FRET, Z-LYTE); type: biochemical
Chain of c-Src (P12931 whole entry, looked up): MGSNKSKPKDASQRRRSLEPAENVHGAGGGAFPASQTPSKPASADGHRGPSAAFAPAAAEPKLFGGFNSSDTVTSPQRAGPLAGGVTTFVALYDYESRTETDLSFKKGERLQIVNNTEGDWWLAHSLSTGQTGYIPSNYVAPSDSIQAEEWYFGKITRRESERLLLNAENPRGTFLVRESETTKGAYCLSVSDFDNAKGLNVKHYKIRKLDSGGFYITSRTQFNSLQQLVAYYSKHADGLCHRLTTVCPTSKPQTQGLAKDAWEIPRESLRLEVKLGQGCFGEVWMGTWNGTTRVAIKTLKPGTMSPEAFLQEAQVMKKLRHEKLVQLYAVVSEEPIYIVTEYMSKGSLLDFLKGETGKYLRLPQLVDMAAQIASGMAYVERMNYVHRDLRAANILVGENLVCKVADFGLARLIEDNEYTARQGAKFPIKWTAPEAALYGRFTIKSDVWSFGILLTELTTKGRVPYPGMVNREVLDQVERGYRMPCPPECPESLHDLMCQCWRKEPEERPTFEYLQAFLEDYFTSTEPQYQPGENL
Procedure: as §1, §2, §3

GSK 3α = GSK 3α (Homo sapiens (Human), UniProt P49840); test: GSK 3α enzyme inhibition (FRET, Z-LYTE, Method 2); type: biochemical; conditions: read-out: IC50 Values for Enzyme Inhibition, GSK3α
Chain of GSK 3α (P49840 whole entry): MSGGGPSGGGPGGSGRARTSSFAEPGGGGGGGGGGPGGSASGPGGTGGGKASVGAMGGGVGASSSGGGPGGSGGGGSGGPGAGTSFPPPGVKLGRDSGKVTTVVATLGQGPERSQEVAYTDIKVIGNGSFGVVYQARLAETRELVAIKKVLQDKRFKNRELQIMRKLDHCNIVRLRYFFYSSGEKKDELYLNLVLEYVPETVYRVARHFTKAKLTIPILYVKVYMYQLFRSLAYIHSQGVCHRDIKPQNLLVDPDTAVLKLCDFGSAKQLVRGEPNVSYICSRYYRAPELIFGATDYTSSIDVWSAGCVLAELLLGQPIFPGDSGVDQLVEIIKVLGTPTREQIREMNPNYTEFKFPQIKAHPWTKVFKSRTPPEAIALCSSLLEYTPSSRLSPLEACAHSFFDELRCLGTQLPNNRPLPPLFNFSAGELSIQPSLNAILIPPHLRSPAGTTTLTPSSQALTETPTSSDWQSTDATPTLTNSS
Method in brief: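 Recombinant human GSK3α was preincubated with compound (stocks 4, 0.4, 0.04 or 0.004 μg/mL) at RT, 2 hr for Method 1 and 105 min for Method 2. FRET peptide (8 μM stock) and ATP (40 μM stock) were added for 1 hr, then protease development for 1 hr. IC50 was taken from concentration–response curves.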

PBMCs = test: LPS-induced IL-8 release in PBMC cells (assay b); type: cell-based, human; conditions: Homo sapiens, PBMC; LPS-stimulated PBMCs; read-out: IC50 Values for Inhibition of Cytokine Release, PBMCs IL-8
Method in brief: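 Human PBMCs from healthy donors, isolated by density gradient, were pretreated with compound for 2 h and then stimulated with 1 ng/mL LPS (E. coli 0111:B4) for 24 h at 37° C, 5% CO2. Supernatant IL-8 and TNFα were measured by sandwich ELISA, and IC50 was taken from the dose-response curve.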

Compound	IC50 (Syk) [nM]	IC50 [1] [nM]	IC50 (c-Src) [nM]	IC50 (GSK 3α) [nM]	% β-catenin induction (d-U937 cells; test compound 1 μg/mL) [%]	% β-catenin induction (d-U937 cells; test compound 5 μg/mL) [%]	% β-catenin induction (d-U937 cells; test compound 10 μg/mL) [%]	IC50 (PBMCs) [nM]
COc1c(NC(=O)Nc2ccc(Oc3ccnc(N(C)C)n3)c3ccccc23)cc(C(C)(C)C)cc1P(C)(C)=O [15(ak), 1-(5-(tert-butyl)-3-(dimethylphosphoryl)-2-methoxyphenyl)-3-(4-((2-(dimethylamino)-pyrimidin-4-yl)oxy)naphthalen-1-yl)urea]	> 1780	38	> 1780	> 17800	–	–	–	26
COc1c(NC(=O)Nc2ccc(Oc3ccnc(Nc4cc(C)c5[nH]ncc5c4)n3)c3ccccc23)cc(C(C)(C)C)cc1P(C)(C)=O [15(j), 1-(5-(tert-butyl)-3-(dimethylphosphoryl)-2-methoxyphenyl)-3-(4-((2-((7-methyl-1H-indazol-5-yl)amino)pyrimidin-4-yl)oxy)naphthalen-1-yl)urea]	16	173	19	855	–	–	–	3.2
COc1cc(Nc2cc(Oc3ccc(NC(=O)Nc4cc(C(C)(C)C)cc(CC(N)=O)c4OC)c4ccccc34)ccn2)cc(C(=O)NCC(CO)(CO)CO)c1 [38(al), 3-((4-((4-(3-(3-(2-Amino-2-oxoethyl)-5-(tert-butyl)-2-methoxyphenyl)ureido)naphthalen-1-yl)oxy)pyridin-2-yl)amino)-N-(3-hydroxy-2,2-bis(hydroxymethyl)propyl)-5-methoxybenzamide]	–	44	–	1970	–	–	–	7.2
COc1cc(Nc2cc(Oc3ccc(NC(=O)Nc4cc(C(C)(C)C)cc([S+](C)[O-])c4OC)c4ccccc34)ccn2)ccc1C(=O)O (centres unmarked) [79(g), 4-((4-((4-(3-(5-(tert-Butyl)-2-methoxy-3-(methylsulfinyl)phenyl)ureido)naphthalen-1-yl)oxy)pyridin-2-yl)amino)-2-methoxybenzoic acid]	5	–	17	–	–	–	–	5.3
COc1cc(Nc2cc(Oc3ccc(NC(=O)Nc4cc(C(C)(C)C)cc(P(C)(C)=O)c4OC)c4ccccc34)ccn2)cc(S(=O)(=O)N(C)CCN2CCN(C)CC2)c1 [79(m), 3-((4-((4-(3-(5-(tert-Butyl)-3-(dimethylphosphoryl)-2-methoxyphenyl)ureido)naphthalen-1-yl)oxy)pyridin-2-yl)amino)-5-methoxy-N-methyl-N-(2-(4-methylpiperazin-1-yl)ethyl)benzene sulfonamide]	7	6	25	–	–	–	–	1.8
COCCOCCOCCNC(=O)c1cc(C(C)(C)C)cc(NC(=O)Nc2ccc(Oc3ccnc(Nc4cc(OC)cc(OCCOCCOCCOC)c4)n3)c3ccccc23)c1OC [Example 7, 5-(tert-Butyl)-2-methoxy-3-(3-(4-((2-((3-methoxy-5-(2-(2-(2-methoxyethoxy)ethoxy)ethoxy)-phenyl)amino)pyrimidin-4-yl)oxy)naphthalen-1-yl)ureido)-N-(2-(2-(2-methoxyethoxy)ethoxy)-ethyl)benzamide]	57	108	–	1070	–	–	–	4.6
COc1c(NC(=O)Nc2ccc(Oc3ccnc(NCc4ccccn4)n3)c3ccccc23)cc(C(C)(C)C)cc1P(C)(C)=O [Example 32, 1-(5-(tert-Butyl)-3-(dimethylphosphoryl)-2-methoxyphenyl)-3-(4-((2-((pyridin-2-ylmethyl)-amino)pyrimidin-4-yl)oxy)naphthalen-1-yl)urea]	1600	6	1110	988	–	–	–	1.8
COc1cc(Nc2cc(Oc3ccc(NC(=O)Nc4cc(C(C)(C)C)cc(OCC(CO)(CO)CO)c4OC)c4ccccc34)ccn2)cc(C(N)=O)c1 [Example 67, 3-((4-((4-(3-(5-(tert-Butyl)-3-(3-hydroxy-2,2-bis(hydroxymethyl)propoxy)-2-methoxyphenyl)ureido)naphthalen-1-yl)oxy)pyridin-24)amino)-5-methoxybenzamide]	–	284	–	4260	–	–	–	5.6

Second part, led by results:

IC50 (Syk) [nM]	IC50 [1] [nM]	IC50 (c-Src) [nM]	IC50 (GSK 3α) [nM]	Compound	% β-catenin induction (d-U937 cells; test compound 1 μg/mL) [%]	% β-catenin induction (d-U937 cells; test compound 5 μg/mL) [%]	% β-catenin induction (d-U937 cells; test compound 10 μg/mL) [%]	IC50 (PBMCs) [nM]
278	226	77	9400	COc1cccc(Nc2cc(Oc3ccc(NC(=O)Nc4cc(C(C)(C)C)cc(P(C)(C)=O)c4OC)c4ccccc34)ccn2)c1 [15(af), 1-(5-(tert-butyl)-3-(dimethylphosphoryl)-2-methoxyphenyl)-3-(4-((2-((3-methoxy-phenyl)amino)pyridin-4-yl)oxy)naphthalen-1-yl)urea]	−2.0	13.0	32.0	2.7
1520	–	160	3290	COc1c(CNS(C)(=O)=O)cc(C(C)(C)C)cc1NC(=O)Nc1ccc(Oc2ccnc(Nc3ccccc3)c2)c2ccccc12 [15(aq), N-(5-(tert-butyl)-2-methoxy-3-(3-(4-((2-(phenylamino)pyridin-4-yl)oxy)naphthalen-1-yl)ureido)benzyl)methanesulfonamide]	–	–	–	4.4
273	59	14	785	COc1c(NC(=O)Nc2ccc(Oc3ccnc(Nc4ccccc4)n3)c3ccccc23)cc(C(C)(C)C)cc1P(C)(C)=O [15(b), 1-(5-(tert-butyl)-3-(dimethylphosphoryl)-2-methoxyphenyl)-3-(4-((2-(phenylamino)-pyrimidin-4-yl)oxy)naphthalen-1-yl)urea]	–	–	–	4.5
477	–	61	919	COc1c(NC(=O)Nc2ccc(Oc3ccnc(Nc4ccccc4)n3)c3ccccc23)cc(C(C)(C)C)cc1OCP(C)(C)=O [15(d), 1-(5-(tert-butyl)-3-((dimethylphosphoryl)methoxy)-2-methoxyphenyl)-3-(4-((2-(phenylamino)pyrimidin-4-yl)oxy)naphthalen-1-yl)urea]	11.0	92.0	31.0	6.2
–	747	–	> 16400	COc1c(NC(=O)Nc2ccc(Oc3ccnc(Nc4ccccc4)c3)c3ccccc23)cc(C(C)(C)C)cc1S(C)(=O)=O [15(m), 1-(5-(tert-butyl)-2-methoxy-3-(methylsulfonyl)phenyl)-3-(4-((2-(phenylamino)pyridin-4-yl)oxy)naphthalen-1-yl)urea]	−3.0	5.0	5.0	16
